Experimental findings from US20240217922A1, “MODULATORS OF SORTILIN ACTIVITY” (Insusense ApS, priority 2021, published 2024) are described below.

For the assay, the target named is hSortilin (Homo sapiens (Human), UniProt Q99523). Briefly: Neurotensin scintillation proximity assay, [125I]-neurotensin. The conditions noted are these: displacement of [125I]-neurotensin binding to 6his-Sortilin; average of at least 2 determinations; read-out: IC50 [125I]Neurotensin SPA.
Sequence of hSortilin (Q99523 78-831): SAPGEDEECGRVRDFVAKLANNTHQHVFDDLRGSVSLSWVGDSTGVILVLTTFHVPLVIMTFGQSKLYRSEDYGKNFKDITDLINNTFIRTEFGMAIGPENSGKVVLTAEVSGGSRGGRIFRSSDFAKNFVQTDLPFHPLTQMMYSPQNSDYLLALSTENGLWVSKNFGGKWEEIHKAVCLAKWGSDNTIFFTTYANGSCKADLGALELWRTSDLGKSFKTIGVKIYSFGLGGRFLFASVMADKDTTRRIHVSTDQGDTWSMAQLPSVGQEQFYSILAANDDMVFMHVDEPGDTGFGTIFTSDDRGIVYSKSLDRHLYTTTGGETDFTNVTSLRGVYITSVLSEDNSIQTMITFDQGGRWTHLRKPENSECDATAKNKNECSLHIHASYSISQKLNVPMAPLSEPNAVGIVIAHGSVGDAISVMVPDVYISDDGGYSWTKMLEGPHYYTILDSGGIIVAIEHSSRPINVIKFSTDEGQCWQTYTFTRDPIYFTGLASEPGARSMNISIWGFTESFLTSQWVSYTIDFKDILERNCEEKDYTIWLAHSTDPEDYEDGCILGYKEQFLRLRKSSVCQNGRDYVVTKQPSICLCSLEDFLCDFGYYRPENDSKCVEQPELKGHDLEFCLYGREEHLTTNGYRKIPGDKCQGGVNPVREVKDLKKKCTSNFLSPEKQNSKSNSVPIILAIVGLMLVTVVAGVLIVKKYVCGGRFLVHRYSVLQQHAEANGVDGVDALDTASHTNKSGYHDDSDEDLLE

Procedure: Compound affinity was determined by measuring the displacement of
[3H]-neurotensin or [125I]-neurotensin binding to hSortilin in SPA format. Total volume of 40 μl in 50 mM HEPES pH 7.4 assay buffer containing 100 mM NaCl, 2.0 mM CaCI2, 0.1% BSA and 0.1% Tween-20. […] IC50 values were calculated by nonlinear regression using the sigmoid concentration-response (variable slope) using CDD Vault software. All values reported are average of at least 2 determinations.

`CC[C@H](C)[C@H](NC(C)=O)C(=O)N[C@@H](CCC(C)(C)C)C(=O)O` [Example 16, (S)-2-((2S,3S)-2-Acetamido-3-methylpentanamido)-5,5-dimethylhexanoic Acid]: the IC50 came out at 290 nM.
